Values quoted from earlier work, collected in US11278550B2, “Compositions and methods for the treatment of Prader-Willi syndrome” (Duke University, priority 2016, dated 2022).

Target: T1, G9a (Mus musculus, UniProt Q9Z148)
T1 construct: from tissue
T1 sequence (Q9Z148 1-1263): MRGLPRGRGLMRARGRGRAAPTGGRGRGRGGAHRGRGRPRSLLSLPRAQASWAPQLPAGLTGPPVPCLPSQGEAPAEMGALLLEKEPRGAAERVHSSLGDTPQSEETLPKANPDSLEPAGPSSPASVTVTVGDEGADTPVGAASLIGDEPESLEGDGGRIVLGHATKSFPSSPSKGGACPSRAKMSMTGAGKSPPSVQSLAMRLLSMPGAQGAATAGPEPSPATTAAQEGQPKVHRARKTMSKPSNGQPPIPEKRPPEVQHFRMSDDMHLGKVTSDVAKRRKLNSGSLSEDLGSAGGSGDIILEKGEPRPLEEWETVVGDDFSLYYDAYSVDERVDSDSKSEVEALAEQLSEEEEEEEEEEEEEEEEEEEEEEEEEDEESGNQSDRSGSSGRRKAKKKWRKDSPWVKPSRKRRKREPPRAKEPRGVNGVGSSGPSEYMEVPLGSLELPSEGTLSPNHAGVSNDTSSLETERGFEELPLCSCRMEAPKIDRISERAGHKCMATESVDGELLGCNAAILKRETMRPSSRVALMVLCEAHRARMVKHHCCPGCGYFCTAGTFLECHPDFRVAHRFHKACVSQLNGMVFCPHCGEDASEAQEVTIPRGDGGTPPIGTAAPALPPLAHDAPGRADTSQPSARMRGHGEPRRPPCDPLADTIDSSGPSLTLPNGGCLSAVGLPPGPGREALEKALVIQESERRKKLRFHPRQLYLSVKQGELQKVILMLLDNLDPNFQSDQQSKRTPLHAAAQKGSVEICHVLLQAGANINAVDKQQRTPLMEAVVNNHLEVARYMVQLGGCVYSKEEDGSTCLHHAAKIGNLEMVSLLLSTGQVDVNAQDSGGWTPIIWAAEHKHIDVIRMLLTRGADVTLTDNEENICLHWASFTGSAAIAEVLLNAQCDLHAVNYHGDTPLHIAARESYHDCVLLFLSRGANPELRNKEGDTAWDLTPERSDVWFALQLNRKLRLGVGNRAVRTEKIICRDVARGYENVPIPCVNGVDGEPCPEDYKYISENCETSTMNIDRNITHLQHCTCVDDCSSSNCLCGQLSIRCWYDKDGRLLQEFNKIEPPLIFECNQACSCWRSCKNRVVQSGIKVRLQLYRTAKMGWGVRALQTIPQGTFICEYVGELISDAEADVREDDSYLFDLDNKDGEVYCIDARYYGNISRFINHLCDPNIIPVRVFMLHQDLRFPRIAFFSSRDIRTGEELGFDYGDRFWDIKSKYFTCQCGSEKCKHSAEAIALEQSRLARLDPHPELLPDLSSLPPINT
Conditions: single dose of 5 mg/kg i.p.; cited from earlier work

## COc1cc2c(NC3CCN(C(C)C)CC3)nc(N3CCC(F)(F)CC3)nc2cc1OCCCN1CCCC1 [UNC0642]
  inhibition of G9a activity in adult mice: sufficient to inhibit G9a activity
